Measurements as given in patent publication US8338422B2, “Indolin-2-ones and aza-indolin-2-ones” (Janssen Pharmaceutica NV, priority 2007, dated 2012).
Several values for one entry are separate records, joined by “and”; a condition that tells them apart may be missing. Equal values may be shown once.

What was measured:
MDA/MB231 = experiment: Cellular proliferation assay (Alamar blue), MDA/MB231; format: cell-based; details: MDA/MB231 cells, 72 hours with compound, 10% FCS; for IC50: Homo sapiens, MDA-MB-231, 72 h, read-out: pIC50 MDA/MB231 (converted)
Protocol: (§1) […] functional properties of these compounds was tested in cellular proliferation assays on a panel of different cell lines in the presence of 10% FCS serum (37° C. and 5% (v/v) CO2). In a first step these cells were seeded and incubated for 24 hours in the absence of compound. In the second step the cells were incubated for 72 hours with the compounds to be tested for 72 hours. The viable cell number was finally assessed in a standard Alamar blue cell viability assay.
(§2) The viable cell number was assessed by incubation for either 4 h (HCT-116, H1299, H460) 6 h (SKOV3, HT29, U87-MG, Colo205) or 24 h (A2780, PC3, MDA-MB-231, A549, MCF-7) with Alamar blue (Resazurin 9 μg/ml, K-Ferrocyanide 90 μM K-Ferricyanide 90 μM) and the converted fluorescent product was quantified on a fluorescent plate readed (544 nm/590 nm). Effect of the compounds is calculated as of on control cells.

GSK3β (h) = GSK3β (h) (Homo sapiens, UniProt P49841); experiment: GSK-3β human kinase assay (SPA); format: biochemical; details: for IC50: read-out: GSK3B pIC50 (converted)
In short: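 Radiometric SPA read-out: after EDTA stop, biotinylated 33P-labelled peptide bound streptavidin PVT beads and was imaged on Leadseeker. Reaction: 60 min, room temperature, GSK3β (h) at 1 μg/ml, 1 μM substrate peptide, 1 μM ATP with 2 nM [γ-33P]ATP, Tris pH 7.4/MgCl2/DTT buffer.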

H1299 = experiment: Cellular proliferation assay (Alamar blue), H1299; format: cell-based; details: H1299 cells, 72 hours with compound, 10% FCS; for IC50: Homo sapiens, NCI-H1299, 72 h, read-out: pIC50 H1299 (converted)
Protocol: as §1, §2

A2780 = experiment: Cellular proliferation assay (Alamar blue), A2780; format: cell-based; details: A2780 cells, 72 hours with compound, 10% FCS; for IC50: Homo sapiens, A2780, 72 h, read-out: pIC50 A2780 (converted)
Protocol: as §1, §2

HCT-116 = experiment: Cellular proliferation assay (Alamar blue), HCT-116; format: cell-based; details: HCT-116 cells, 72 hours with compound, 10% FCS; for IC50: Homo sapiens, HCT-116, 72 h, read-out: pIC50 HCT-116 (converted)
Protocol: as §1, §2

AuroraB (h) = AuroraB (h) (Homo sapiens, UniProt Q96GD4); experiment: Aurora-B human kinase assay (SPA); format: biochemical; details: for IC50: read-out: AuroraB pIC50 (converted)
In short: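 33P-phosphorylated biotin-substrate captured on streptavidin PVT SPA beads after EDTA-containing stop and imaged on Leadseeker. Reaction: 60 min at room temperature, Hepes pH 7.5 with Mg2+/Mn2+. Conditions: 0.5 μM ATP plus 2.2 nM [γ-33P]ATP, 3 μM substrate, 0.5 μg/ml human AuroraB.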

PC-3 = experiment: Cellular proliferation assay (Alamar blue), PC-3; format: cell-based; details: PC-3 cells, 72 hours with compound, 10% FCS; for IC50: Homo sapiens, PC-3, 72 h, read-out: pIC50 PC-3 (converted)
Protocol: as §1, §2

PLK4 (h) = PLK4 (h) (Homo sapiens, UniProt O00444); experiment: PLK-4 human kinase assay (SPA); format: biochemical; details: for IC50: read-out: PLK4 pIC50 (converted)
In short: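 Radiometric readout: 33P-labelled peptide captured on streptavidin SPA beads after EDTA stop, imaged by Leadseeker. Reaction ran 60 min at room temperature in Hepes pH 8.0 buffer. It contained 1 μM ATP with 2 nM [γ-33P]ATP, 10 μM biotinylated peptide and PLK4 (h) at 19 μg/ml.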

U87MG = experiment: Cellular proliferation assay (Alamar blue), U87MG; format: cell-based; details: U87MG cells, 72 hours with compound, 10% FCS; for IC50: Homo sapiens, U-87 MG, 72 h, read-out: pIC50 U87MG (converted)
Protocol: as §1, §2

CDK1/CyclinB (h) = CDK1/CyclinB (h) (Homo sapiens, UniProt P06493); experiment: CDK1/CyclinB human kinase assay (FRET); format: biochemical; details: for IC50: read-out: CDK1 pIC50 (converted)
In short: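 Kinase activity was read as the 460/538 nm emission ratio after protease cleavage of unphosphorylated peptide (60 min development). The reaction ran 60 min at room temperature with 10 μM ATP, 2 μM Ser/Thr peptide 12 and 0.2 μg/ml enzyme in Hepes pH 7.5 buffer with MgCl2, EGTA, Brij-35.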

AuroraB (h), sequence (Q96GD4 whole entry): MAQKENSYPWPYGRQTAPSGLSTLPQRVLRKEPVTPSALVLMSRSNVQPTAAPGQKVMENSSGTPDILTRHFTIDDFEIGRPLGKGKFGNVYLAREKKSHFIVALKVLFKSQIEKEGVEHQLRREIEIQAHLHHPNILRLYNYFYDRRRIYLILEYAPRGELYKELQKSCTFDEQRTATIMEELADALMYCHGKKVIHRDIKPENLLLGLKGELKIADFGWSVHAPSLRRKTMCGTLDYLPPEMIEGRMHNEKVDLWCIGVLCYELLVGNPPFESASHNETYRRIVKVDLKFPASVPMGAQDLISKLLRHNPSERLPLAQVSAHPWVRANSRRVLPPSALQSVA
CDK1/CyclinB (h), sequence (P06493 whole entry): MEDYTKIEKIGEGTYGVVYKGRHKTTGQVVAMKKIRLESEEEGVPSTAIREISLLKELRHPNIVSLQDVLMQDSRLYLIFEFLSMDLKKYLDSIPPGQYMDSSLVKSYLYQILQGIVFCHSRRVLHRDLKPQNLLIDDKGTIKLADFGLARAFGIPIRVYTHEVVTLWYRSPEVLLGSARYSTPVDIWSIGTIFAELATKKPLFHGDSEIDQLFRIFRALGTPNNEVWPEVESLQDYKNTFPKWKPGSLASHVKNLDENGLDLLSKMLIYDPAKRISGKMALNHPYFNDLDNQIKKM
CDK1/CyclinB (h), sequence (P14635 whole entry partner): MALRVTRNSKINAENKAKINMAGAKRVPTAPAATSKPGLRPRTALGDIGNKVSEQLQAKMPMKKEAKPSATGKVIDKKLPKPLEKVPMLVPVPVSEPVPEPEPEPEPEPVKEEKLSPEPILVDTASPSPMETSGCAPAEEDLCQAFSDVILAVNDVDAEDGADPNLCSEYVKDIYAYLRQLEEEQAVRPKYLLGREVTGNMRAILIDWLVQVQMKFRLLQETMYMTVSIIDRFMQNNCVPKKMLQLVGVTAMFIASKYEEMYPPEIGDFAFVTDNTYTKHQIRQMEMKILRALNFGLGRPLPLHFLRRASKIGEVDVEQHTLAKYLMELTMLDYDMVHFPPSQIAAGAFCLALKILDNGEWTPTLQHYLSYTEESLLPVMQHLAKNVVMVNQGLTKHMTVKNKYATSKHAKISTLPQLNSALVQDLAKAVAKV
GSK3β (h), sequence (P49841 whole entry): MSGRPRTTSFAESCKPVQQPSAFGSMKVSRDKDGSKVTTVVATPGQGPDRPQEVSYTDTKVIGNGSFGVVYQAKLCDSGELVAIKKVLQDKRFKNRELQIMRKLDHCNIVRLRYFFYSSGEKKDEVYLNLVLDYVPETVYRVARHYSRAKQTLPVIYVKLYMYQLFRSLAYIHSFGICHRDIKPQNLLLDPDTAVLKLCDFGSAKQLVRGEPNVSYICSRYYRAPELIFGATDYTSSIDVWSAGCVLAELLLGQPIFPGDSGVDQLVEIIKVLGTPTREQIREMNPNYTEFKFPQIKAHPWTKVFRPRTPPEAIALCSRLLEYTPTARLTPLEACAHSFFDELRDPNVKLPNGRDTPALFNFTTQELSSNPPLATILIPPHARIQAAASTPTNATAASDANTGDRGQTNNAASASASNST
PLK4 (h), sequence (O00444 whole entry): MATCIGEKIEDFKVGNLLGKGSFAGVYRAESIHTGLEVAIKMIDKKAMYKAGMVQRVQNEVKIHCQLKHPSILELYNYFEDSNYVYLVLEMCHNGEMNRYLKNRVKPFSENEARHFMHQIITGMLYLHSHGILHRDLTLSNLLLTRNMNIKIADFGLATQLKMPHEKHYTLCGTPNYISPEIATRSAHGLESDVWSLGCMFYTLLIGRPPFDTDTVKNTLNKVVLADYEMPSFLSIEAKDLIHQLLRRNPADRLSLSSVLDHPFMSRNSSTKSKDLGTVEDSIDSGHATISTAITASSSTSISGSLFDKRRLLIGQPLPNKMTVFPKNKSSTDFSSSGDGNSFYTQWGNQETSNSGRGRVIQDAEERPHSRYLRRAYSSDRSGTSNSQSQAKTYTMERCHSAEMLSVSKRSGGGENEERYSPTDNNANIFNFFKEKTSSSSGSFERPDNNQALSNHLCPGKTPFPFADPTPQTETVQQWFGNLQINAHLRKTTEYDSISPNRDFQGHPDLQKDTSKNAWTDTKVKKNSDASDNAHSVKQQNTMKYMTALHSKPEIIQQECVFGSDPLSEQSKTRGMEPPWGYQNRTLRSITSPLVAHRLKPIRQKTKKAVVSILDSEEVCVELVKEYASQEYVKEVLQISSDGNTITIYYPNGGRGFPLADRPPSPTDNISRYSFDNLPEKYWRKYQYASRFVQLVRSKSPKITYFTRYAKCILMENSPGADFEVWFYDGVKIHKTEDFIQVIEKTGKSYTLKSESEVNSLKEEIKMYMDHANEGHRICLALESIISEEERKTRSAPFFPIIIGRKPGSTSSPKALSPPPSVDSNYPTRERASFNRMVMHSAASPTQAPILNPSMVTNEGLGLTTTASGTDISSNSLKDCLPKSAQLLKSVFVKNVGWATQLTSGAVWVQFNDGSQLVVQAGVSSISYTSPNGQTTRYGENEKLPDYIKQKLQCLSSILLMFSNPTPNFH

SMILES | pIC50 MDA/MB231 (MDA/MB231) | GSK3B pIC50 (GSK3β (h)) | pIC50 H1299 (H1299) | pIC50 A2780 (A2780) | pIC50 HCT-116 (HCT-116) | AuroraB pIC50 (AuroraB (h)) | pIC50 PC-3 (PC-3) | PLK4 pIC50 (PLK4 (h)) | pIC50 U87MG (U87MG) | CDK1 pIC50 (CDK1/CyclinB (h)) | IC50 (MDA/MB231) [µM] | IC50 (GSK3β (h)) | IC50 (H1299) [µM] | IC50 (A2780) [µM] | IC50 (HCT-116) [µM] | IC50 (PC-3) [µM] | IC50 (PLK4 (h)) | IC50 (U87MG) [µM] | IC50 (CDK1/CyclinB (h)) [µM] | IC50 (AuroraB (h))
CN1CCCNc2ncnc3c2C(=CNc2cccc(c2)OCCCC1=O)C(=O)N3 (mixture of isomers) [Compound 35] | <5 | 7.4 | 5.62 | 5.17 | 5.85 | 6.88 | 5.31 | 7.01 | 5.50 | 6.56 | – | – | – | – | – | – | – | – | – | –
COc1ccc2cc1OCCCCC(=O)NCCN(C)c1ncnc3c1C(=CN2)C(=O)N3 (mixture of isomers) [Compound 44] | <5 | 5.31 | <5 | <5 | <5 | <5 | <5 | 5.22 | <5 | <5 | – | – | – | – | – | – | – | – | – | –
COc1ccc2cc1OCCCCCC(=O)NCCN(C)c1ncnc3c1C(=CN2)C(=O)N3 (mixture of isomers) [Compound 46] | <5 | 5.07 | <5 | <5 | <5 | 5.13 | <5 | 5.18 | 5.04 | <5 | – | – | – | – | – | – | – | – | – | –
CN1CCNc2ncnc3c2C(=CNc2cccc(c2)OCCCC1=O)C(=O)N3 (mixture of isomers) [Compound 58] | <5 | 6.88 | 5.89 | 6.2 | 6.17 | 6.33 | <5 | 6.75 | 5.13 | 6.16 | – | – | – | – | – | – | – | – | – | –
CN1CCNC(=O)CCCCOc2cccc(c2)N/C=C2\C(=O)Nc3ncnc1c32 [Compound 43] | – | – | – | – | – | – | – | – | – | – | > 10 | 2.51 µM | > 10 | > 10 | > 10 | > 10 | 2.63 µM | > 10 | 4.27 | –
CN1CCCNc2ncnc3c2/C(=C/Nc2cc(cc(C(F)(F)F)c2)OCCCC1=O)C(=O)N3 [Compound 113] | – | – | – | – | – | – | – | – | – | – | > 10 | > 10 µM | > 10 | > 10 | > 10 | > 10 | – | > 10 | > 10 | 1.38 µM
CN1CCNC(=O)CCCOc2cccc(c2)N/C=C2\C(=O)Nc3ncnc(c32)NCC1 [Compound 159] | – | – | – | – | – | – | – | – | – | – | > 10 | 2.88 µM | > 10 | > 10 | > 10 | > 10 | 4.37 µM | > 10 | – | > 10 µM
CN1CCNC(=O)COc2cccc(c2)N/C=C2\C(=O)Nc3ncnc(c32)NCC1 [Compound 167] | – | – | – | 5.13 | 5.06 | – | – | – | – | – | > 10 | 0.933 µM and 1.12 µM | > 10 | 5.89 | 5.5 | > 10 | 2.4 µM | > 10 | – | 6.76 µM and 3.24 µM
CN1CCNc2ncnc3c2/C(=C/Nc2cccc(c2)OCC(=O)N2CCC[C@@H]2C1)C(=O)N3 [Compound 168] | – | – | – | – | – | – | – | – | – | – | > 10 | 7.59 µM and 5.75 µM | > 10 | > 10 | > 10 | > 10 | > 10 µM and 6.17 µM | > 10 | – | > 10 µM
CN1CCNc2ncnc3c2/C(=C/Nc2cccc(c2)OCC(=O)N[C@H](Cc2ccccc2)C1)C(=O)N3 [Compound 169] | – | – | <5 | 5.08 | 5.07 | – | – | – | <5 | – | > 10 | 1.86 µM and 3.24 µM | 8.32 | 9.12 | > 10 | > 10 | 1.82 µM and 2 µM | 7.41 | – | 3.55 µM
CN1CCCNc2ncnc3c2/C(=C/Nc2cccc(c2)OCC(=O)N2CCC[C@@H]2C1)C(=O)N3 [Compound 170] | – | – | – | – | – | – | – | – | – | – | > 10 | 8.91 µM | > 10 | > 10 | > 10 | > 10 | 7.41 µM | > 10 | – | > 10 µM
CN1CCCNc2ncnc3c2/C(=C/Nc2cccc(c2)OCC(=O)N[C@H](Cc2ccccc2)C1)C(=O)N3 [Compound 176] | – | – | – | – | – | – | – | – | – | – | > 10 | 9.55 µM | > 10 | > 10 | > 10 | > 10 | 0.468 µM | > 10 | – | 6.76 µM
CN1CCNc2ncnc3c2/C(=C/Nc2ccc(Cl)c(c2)OCC(=O)N2CCC[C@@H]2C1)C(=O)N3 [Compound 192] | – | – | – | – | – | – | – | – | – | – | > 10 | 5.01 µM | 2.51 | 3.09 | 2.19 | > 10 | > 10 µM | > 10 | – | > 10 µM
